# Assay results: US20210403485A1, “PYRAZOLOPYRIMIDINE DERIVATIVE AS SELECTIVE TRK INHIBITOR” (SHANDONG LUYE PHARMACEUTICAL CO., LTD., priority 2018, published 2021)
# Target: T1, ALK (Homo sapiens, UniProt Q9UM73)
# T1 construct: purchased Reaction Biology Corp
# Assay: Kinase inhibitory activity (33P-ATP, filtration-binding method, Reaction Biology Corp.)
# Assay type: biochemical
# Settings: read-out: Half maximal inhibitory concentration IC50 for kinases, ALK
# Method: (§1) The mixture was incubated at room temperature for 20 minutes, added with ^33P-ATP at a certain concentration to start the reaction, and then incubated at room temperature for 120 minutes. Finally, the radioactivity of the reactant was detected by the filtration-binding method. The final kinase activity was expressed as the ratio of the remaining kinase activity in the test sample to the kinase activity of the DMSO control. The dose-response curves were fitted and IC50 values were calculated by GraphPad software.
row,IC50 [nM],SMILES
1,> 1000,C[C@@H]1COC[C@@H]2c3cc(F)cnc3O[C@@H](C)CNC(=O)c3cnn4ccc(nc34)N12 [WX008]
2,51.3,O=C1NC2(CC2)COc2ncc(F)cc2[C@H]2CCOCCN2c2ccn3ncc1c3n2 [WX009A]

# Target: T2, Ros1 (Homo sapiens, UniProt P08922)
# T2 construct: purchased Reaction Biology Corp
# Assay: as above
# Assay type: biochemical
# Settings: read-out: Half maximal inhibitory concentration IC50 for kinases, Ros1
# Method: as §1
row,IC50 [nM],SMILES
1,12.8,C[C@@H]1COC[C@@H]2c3cc(F)cnc3O[C@@H](C)CNC(=O)c3cnn4ccc(nc34)N12 [WX008]
2,0.1,O=C1NC2(CC2)COc2ncc(F)cc2[C@H]2CCOCCN2c2ccn3ncc1c3n2 [WX009A]

# Target: T3, TrkA (Homo sapiens, UniProt P04629)
# T3 construct: purchased Reaction Biology Corp
# Assay: as above
# Assay type: biochemical
# Settings: read-out: Half maximal inhibitory concentration IC50 for kinases, TrkA
# Method: as §1
row,IC50 [nM],SMILES
1,0.7,C[C@@H]1COC[C@@H]2c3cc(F)cnc3O[C@@H](C)CNC(=O)c3cnn4ccc(nc34)N12 [WX008]
2,1.8,O=C1NC2(CC2)COc2ncc(F)cc2[C@H]2CCOCCN2c2ccn3ncc1c3n2 [WX009A]

# Target: T4, TrkA-G595R (Homo sapiens, UniProt P04629, G595R)
# T4 construct: purchased Reaction Biology Corp
# Assay: as above
# Assay type: biochemical
# Settings: read-out: Half maximal inhibitory concentration IC50 for kinases, TrkA-G595R
# Method: as §1
row,IC50 [nM],SMILES
1,0.2,C[C@@H]1COC[C@@H]2c3cc(F)cnc3O[C@@H](C)CNC(=O)c3cnn4ccc(nc34)N12 [WX008]
2,0.9,O=C1NC2(CC2)COc2ncc(F)cc2[C@H]2CCOCCN2c2ccn3ncc1c3n2 [WX009A]

# Target: T5, TrkA-G667C (Homo sapiens, UniProt P04629, G667C)
# T5 construct: purchased Reaction Biology Corp
# Assay: as above
# Assay type: biochemical
# Settings: read-out: Half maximal inhibitory concentration IC50 for kinases, TrkA-G667C
# Method: as §1
row,IC50 [nM],SMILES
1,0.1,C[C@@H]1COC[C@@H]2c3cc(F)cnc3O[C@@H](C)CNC(=O)c3cnn4ccc(nc34)N12 [WX008]
2,2.9,O=C1NC2(CC2)COc2ncc(F)cc2[C@H]2CCOCCN2c2ccn3ncc1c3n2 [WX009A]

# Target: T6, TrkC (Homo sapiens, UniProt Q16288)
# T6 construct: purchased Reaction Biology Corp
# Assay: as above
# Assay type: biochemical
# Settings: read-out: Half maximal inhibitory concentration IC50 for kinases, TrkC
# Method: as §1
row,IC50 [nM],SMILES
1,0.1,C[C@@H]1COC[C@@H]2c3cc(F)cnc3O[C@@H](C)CNC(=O)c3cnn4ccc(nc34)N12 [WX008]
2,0.1,O=C1NC2(CC2)COc2ncc(F)cc2[C@H]2CCOCCN2c2ccn3ncc1c3n2 [WX009A]

# Target: T7, Ba/F3 LMNA-NTRK1-F589L (Homo sapiens, UniProt P04629, F589L, cells depend on it)
# T7 construct: fused on or other part: N-terminal part of LMNA as fusion partner (part of the key); P02545 (Prelamin-A/C)
# Assay: Inhibitory activity against cell proliferation (CellTiter-Glo, 72 hours)
# Assay type: cell-based
# Settings: read-out: Half maximal inhibitory concentration IC50 of cells, Ba/F3 LMNA-NTRK1-F589L
# Method: (§2) Adenosine Triphosphate (ATP) is an energy carrier commonly used in various life activities in nature, and is the minimum unit for energy storage and transfer. The CellTiter-Glo™ cell viability assay kit uses luciferase as an assay agent, which requires the involvement of ATP in luminescence. The CellTiter-Glo™ reagent is added into cell culture medium to measure the luminescence value. The luminescence signal is directly proportional to the amount of ATP in the system, and the ATP is positively correlated with the number of viable cells. Therefore, the proliferation of cells can be detected by detecting the ATP content using the CellTiter-Glo kit.
# (§3) a) Cells in the logarithmic growth phase were collected and counted using a […]. The cell viability was detected by the trypan blue exclusion method, and the cell viability was kept over 90%.
# (§4) b) The cell concentration was adjusted; 90 μL of the cell suspension was added to a 96-well plate.
# (§5) a) A 10-fold compound solution was prepared, with the highest concentration being 10 μM (a total of 9 concentrations, 3-fold dilution). 10 μL of compound solution was added to each well of a 96-well plate inoculated with cells, and three duplicate wells were set for each compound concentration.
# (§6) a) The CTG reagent was thawed and the cell plate was equilibrated to room temperature for 30 minutes.
# (§7) b) An equal volume of CTG solution was added to each well.
# (§8) c) The plate was shaken on an orbital shaker for 5 minutes to lyse the cells.
# (§9) d) The cell plate was placed at room temperature for 20 minutes to stabilize the luminescence signal.
# (§10) e) The luminescence value was read.
# (§11) The data were analyzed using GraphPad Prism 5.0 software, fitted with nonlinear S-curve regression to give dose-response curves, and IC50 values were calculated therefrom.
row,GI50 [nM],SMILES
1,204,C[C@@H]1COC[C@@H]2c3cc(F)cnc3O[C@@H](C)CNC(=O)c3cnn4ccc(nc34)N12 [WX008]
2,15.8,O=C1NC2(CC2)COc2ncc(F)cc2[C@H]2CCOCCN2c2ccn3ncc1c3n2 [WX009A]

# Target: T8, Ba/F3 LMNA-NTRK1-WT (Homo sapiens, UniProt P04629)
# T8 construct: fused on or other part: N-terminal part of LMNA as fusion partner (part of the key); P02545 (Prelamin-A/C)
# Assay: as above
# Assay type: cell-based
# Settings: read-out: Half maximal inhibitory concentration IC50 of cells, Ba/F3 LMNA-NTRK1-WT
# Method: as §2, §3, §4, §5, §6, §7, §8, §9, §10, §11
# T8 sequence (P04629 whole entry, change not shown, the tested form may be a part): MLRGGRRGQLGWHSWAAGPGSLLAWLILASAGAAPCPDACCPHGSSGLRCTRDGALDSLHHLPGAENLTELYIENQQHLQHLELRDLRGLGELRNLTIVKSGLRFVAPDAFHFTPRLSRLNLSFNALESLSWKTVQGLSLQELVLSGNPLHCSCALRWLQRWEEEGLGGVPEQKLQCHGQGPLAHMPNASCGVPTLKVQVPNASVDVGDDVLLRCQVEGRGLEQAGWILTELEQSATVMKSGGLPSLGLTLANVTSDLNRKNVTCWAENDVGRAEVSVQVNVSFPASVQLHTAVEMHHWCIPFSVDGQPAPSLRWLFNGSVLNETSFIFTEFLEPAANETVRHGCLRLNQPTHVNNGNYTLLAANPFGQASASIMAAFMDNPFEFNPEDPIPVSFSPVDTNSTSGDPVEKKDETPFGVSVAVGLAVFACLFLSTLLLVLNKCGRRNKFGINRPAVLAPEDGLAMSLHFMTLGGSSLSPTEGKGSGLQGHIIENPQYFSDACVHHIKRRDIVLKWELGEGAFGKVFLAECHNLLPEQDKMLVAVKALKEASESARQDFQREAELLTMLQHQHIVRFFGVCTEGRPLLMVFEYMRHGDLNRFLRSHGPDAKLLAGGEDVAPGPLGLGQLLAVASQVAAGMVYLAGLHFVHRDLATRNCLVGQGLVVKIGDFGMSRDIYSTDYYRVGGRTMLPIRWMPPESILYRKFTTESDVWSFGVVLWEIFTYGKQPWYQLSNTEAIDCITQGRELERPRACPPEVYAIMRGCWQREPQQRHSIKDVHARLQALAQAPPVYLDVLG
row,GI50 [nM],SMILES
1,1.6,C[C@@H]1COC[C@@H]2c3cc(F)cnc3O[C@@H](C)CNC(=O)c3cnn4ccc(nc34)N12 [WX008]
2,1,O=C1NC2(CC2)COc2ncc(F)cc2[C@H]2CCOCCN2c2ccn3ncc1c3n2 [WX009A]

# Target: T9, Ba/F3 SLC34A2-ROS1-WT (Homo sapiens, UniProt P08922)
# T9 construct: fused on or other part: N-terminal part of SLC34A2 as fusion partner (part of the key); O95436 (Sodium-dependent phosphate transport protein 2B)
# Assay: as above
# Assay type: cell-based
# Settings: read-out: Half maximal inhibitory concentration IC50 of cells, Ba/F3 SLC34A2-ROS1-WT
# Method: as §2, §3, §4, §5, §6, §7, §8, §9, §10, §11
# T9 sequence (P08922 whole entry, change not shown, the tested form may be a part): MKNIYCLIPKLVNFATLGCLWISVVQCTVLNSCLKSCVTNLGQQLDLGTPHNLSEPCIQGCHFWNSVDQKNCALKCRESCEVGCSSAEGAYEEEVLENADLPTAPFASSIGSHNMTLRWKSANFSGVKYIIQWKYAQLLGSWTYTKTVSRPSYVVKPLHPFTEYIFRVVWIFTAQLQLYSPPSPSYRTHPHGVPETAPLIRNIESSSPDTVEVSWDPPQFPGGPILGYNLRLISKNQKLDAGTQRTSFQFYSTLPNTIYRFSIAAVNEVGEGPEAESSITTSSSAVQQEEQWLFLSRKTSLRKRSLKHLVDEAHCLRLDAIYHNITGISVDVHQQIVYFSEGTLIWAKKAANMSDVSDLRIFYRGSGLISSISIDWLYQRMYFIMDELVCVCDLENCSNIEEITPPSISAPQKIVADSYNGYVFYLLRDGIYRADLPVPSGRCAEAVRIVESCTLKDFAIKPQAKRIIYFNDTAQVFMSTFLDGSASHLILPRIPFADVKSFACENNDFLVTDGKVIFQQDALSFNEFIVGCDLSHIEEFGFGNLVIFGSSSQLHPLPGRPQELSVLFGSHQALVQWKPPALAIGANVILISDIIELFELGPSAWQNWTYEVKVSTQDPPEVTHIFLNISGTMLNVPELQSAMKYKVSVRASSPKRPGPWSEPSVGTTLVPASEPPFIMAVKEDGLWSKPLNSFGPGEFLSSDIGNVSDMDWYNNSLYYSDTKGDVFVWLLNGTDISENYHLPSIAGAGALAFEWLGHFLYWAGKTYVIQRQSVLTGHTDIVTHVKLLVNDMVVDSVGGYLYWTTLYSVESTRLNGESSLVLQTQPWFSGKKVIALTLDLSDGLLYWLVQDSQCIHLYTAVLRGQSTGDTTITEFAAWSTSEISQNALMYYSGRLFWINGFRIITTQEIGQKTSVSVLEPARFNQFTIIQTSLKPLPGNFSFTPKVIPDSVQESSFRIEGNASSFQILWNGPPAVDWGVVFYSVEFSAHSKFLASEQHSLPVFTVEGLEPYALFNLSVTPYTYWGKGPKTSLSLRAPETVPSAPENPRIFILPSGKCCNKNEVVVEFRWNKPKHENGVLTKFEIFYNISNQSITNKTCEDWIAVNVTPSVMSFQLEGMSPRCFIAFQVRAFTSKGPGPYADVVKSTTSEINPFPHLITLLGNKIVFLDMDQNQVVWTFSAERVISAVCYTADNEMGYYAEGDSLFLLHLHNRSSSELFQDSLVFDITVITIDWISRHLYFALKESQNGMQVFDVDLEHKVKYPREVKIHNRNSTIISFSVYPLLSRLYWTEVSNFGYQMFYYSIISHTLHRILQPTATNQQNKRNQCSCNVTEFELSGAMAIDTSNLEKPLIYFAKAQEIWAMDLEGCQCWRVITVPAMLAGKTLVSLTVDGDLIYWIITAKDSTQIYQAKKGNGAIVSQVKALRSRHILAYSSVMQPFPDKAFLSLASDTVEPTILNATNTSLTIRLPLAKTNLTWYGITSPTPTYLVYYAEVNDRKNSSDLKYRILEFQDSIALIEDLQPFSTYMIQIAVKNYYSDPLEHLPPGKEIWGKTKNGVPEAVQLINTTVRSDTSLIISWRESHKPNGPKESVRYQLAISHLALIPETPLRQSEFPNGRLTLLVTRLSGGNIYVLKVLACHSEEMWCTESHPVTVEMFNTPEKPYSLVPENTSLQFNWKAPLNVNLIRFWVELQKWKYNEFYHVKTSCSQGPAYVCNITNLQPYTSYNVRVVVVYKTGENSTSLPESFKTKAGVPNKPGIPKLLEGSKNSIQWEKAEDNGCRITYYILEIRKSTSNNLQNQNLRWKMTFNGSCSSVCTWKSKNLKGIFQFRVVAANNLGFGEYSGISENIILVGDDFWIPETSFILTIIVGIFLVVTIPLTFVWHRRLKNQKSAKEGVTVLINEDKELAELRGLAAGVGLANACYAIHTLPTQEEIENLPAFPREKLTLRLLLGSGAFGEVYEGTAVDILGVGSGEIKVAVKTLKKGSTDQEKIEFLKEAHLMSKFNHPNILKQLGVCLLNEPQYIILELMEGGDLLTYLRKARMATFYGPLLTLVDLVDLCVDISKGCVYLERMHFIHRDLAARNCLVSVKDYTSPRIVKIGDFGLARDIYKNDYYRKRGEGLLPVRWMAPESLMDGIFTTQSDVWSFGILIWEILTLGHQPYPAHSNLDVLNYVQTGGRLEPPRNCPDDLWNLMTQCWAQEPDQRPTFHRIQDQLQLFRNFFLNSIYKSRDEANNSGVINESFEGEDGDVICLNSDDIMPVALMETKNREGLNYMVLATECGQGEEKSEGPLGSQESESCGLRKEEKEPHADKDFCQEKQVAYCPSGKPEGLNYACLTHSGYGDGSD
row,GI50 [nM],SMILES
1,> 1000,C[C@@H]1COC[C@@H]2c3cc(F)cnc3O[C@@H](C)CNC(=O)c3cnn4ccc(nc34)N12 [WX008]
2,50,O=C1NC2(CC2)COc2ncc(F)cc2[C@H]2CCOCCN2c2ccn3ncc1c3n2 [WX009A]

# Target: T10, BaF3 ETV6-NTRK3-WT (Homo sapiens, UniProt Q16288)
# T10 construct: fused on or other part: N-terminal part of ETV6 (TEL) as fusion partner (part of the key); P41212 (Transcription factor ETV6)
# Assay: as above
# Assay type: cell-based
# Settings: read-out: Half maximal inhibitory concentration IC50 of cells, BaF3 ETV6-NTRK3-WT
# Method: as §2, §3, §4, §5, §6, §7, §8, §9, §10, §11
row,GI50 [nM],SMILES
1,1.8,C[C@@H]1COC[C@@H]2c3cc(F)cnc3O[C@@H](C)CNC(=O)c3cnn4ccc(nc34)N12 [WX008]
2,2.2,O=C1NC2(CC2)COc2ncc(F)cc2[C@H]2CCOCCN2c2ccn3ncc1c3n2 [WX009A]

# Target: T11, BaF3 LMNA-NTRK1-G595R (Homo sapiens, UniProt P04629, G595R, cells depend on it)
# T11 construct: fused on or other part: N-terminal part of LMNA as fusion partner (part of the key); P02545 (Prelamin-A/C)
# Assay: as above
# Assay type: cell-based
# Settings: read-out: Half maximal inhibitory concentration IC50 of cells, BaF3 LMNA-NTRK1-G595R
# Method: as §2, §3, §4, §5, §6, §7, §8, §9, §10, §11
row,GI50 [nM],SMILES
1,5,C[C@@H]1COC[C@@H]2c3cc(F)cnc3O[C@@H](C)CNC(=O)c3cnn4ccc(nc34)N12 [WX008]
2,7.4,O=C1NC2(CC2)COc2ncc(F)cc2[C@H]2CCOCCN2c2ccn3ncc1c3n2 [WX009A]

# Target: T12, BaF3 LMNA-NTRK1-G667A (Homo sapiens, UniProt P04629, G667A, cells depend on it)
# T12 construct: fused on or other part: N-terminal part of LMNA as fusion partner (part of the key); P02545 (Prelamin-A/C)
# Assay: as above
# Assay type: cell-based
# Settings: read-out: Half maximal inhibitory concentration IC50 of cells, BaF3 LMNA-NTRK1-G667A
# Method: as §2, §3, §4, §5, §6, §7, §8, §9, §10, §11
# T12 sequence (P04629 whole entry G667A, the tested form may be a part): as the sequence (P04629 whole entry, change not shown, the tested form may be a part) above, with G667A counted along it
row,GI50 [nM],SMILES
1,2,C[C@@H]1COC[C@@H]2c3cc(F)cnc3O[C@@H](C)CNC(=O)c3cnn4ccc(nc34)N12 [WX008]
2,7.3,O=C1NC2(CC2)COc2ncc(F)cc2[C@H]2CCOCCN2c2ccn3ncc1c3n2 [WX009A]

# Target: T13, BaF3 ETV6-NTRK3-G623R (Homo sapiens, UniProt Q16288, G623R, cells depend on it)
# T13 construct: fused on or other part: N-terminal part of ETV6 (TEL) as fusion partner (part of the key); P41212 (Transcription factor ETV6)
# Assay: as above
# Assay type: cell-based
# Settings: read-out: Half maximal inhibitory concentration IC50 of cells, BaF3 ETV6-NTRK3-G623R
# Method: as §2, with “kit. In this test, the cell lines used are Ba/F3 LMNA-NTRK1-WT, Ba/F3 LMNA-NTRK1-F589L, BaF3 LMNA-NTRK1-G595R, BaF3 LMNA-NTRK1-G667A, BaF3 ETV6-NTRK3-WT, BaF3 ETV6-NTRK3-G623R, and Ba/F3 SLC34A2-ROS1-WT stable cell strains, 5000 cells/well.” for “kit.”
# as §3, §4
# c) Cells in the 96-well plate were incubated overnight at 37° C. with 5% CO2 and 95% humidity.
# as §5
# b) The cells in the 96-well plate added with compound were incubated for 72 hours at 37° C. with 5% CO2 and 95% humidity, followed by the CTG (CellTiter-Glo) analysis.
# as §6, §7, §8, §9, §10, §11
# T13 sequence (Q16288 whole entry G623R, the tested form may be a part): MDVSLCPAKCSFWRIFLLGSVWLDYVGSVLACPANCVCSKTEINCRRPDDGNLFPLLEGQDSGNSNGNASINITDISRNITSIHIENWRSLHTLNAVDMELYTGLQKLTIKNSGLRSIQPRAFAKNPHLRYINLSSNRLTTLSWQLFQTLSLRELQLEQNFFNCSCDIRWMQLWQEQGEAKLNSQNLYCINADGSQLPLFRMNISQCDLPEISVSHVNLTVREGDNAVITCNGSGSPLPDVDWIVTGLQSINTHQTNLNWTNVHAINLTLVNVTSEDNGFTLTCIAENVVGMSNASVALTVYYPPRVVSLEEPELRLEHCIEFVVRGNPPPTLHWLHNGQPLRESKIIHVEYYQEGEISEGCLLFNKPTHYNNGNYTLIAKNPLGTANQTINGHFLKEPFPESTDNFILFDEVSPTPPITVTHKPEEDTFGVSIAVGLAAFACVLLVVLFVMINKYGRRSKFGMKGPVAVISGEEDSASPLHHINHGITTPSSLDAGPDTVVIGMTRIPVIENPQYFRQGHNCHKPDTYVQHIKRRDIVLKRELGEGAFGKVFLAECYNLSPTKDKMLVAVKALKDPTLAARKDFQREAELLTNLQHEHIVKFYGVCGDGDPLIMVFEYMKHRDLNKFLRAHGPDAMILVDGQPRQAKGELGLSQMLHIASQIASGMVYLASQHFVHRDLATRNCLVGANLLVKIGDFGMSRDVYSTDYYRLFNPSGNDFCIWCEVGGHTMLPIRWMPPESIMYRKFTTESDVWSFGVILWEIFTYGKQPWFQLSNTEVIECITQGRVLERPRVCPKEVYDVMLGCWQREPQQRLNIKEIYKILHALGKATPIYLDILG
row,GI50 [nM],SMILES
1,8.6,C[C@@H]1COC[C@@H]2c3cc(F)cnc3O[C@@H](C)CNC(=O)c3cnn4ccc(nc34)N12 [WX008]
2,12.9,O=C1NC2(CC2)COc2ncc(F)cc2[C@H]2CCOCCN2c2ccn3ncc1c3n2 [WX009A]

# Tested on: not listed separately
# Assay: Pharmacokinetic test of compounds in rats (plasma, LC/MS/MS)
# Assay type: in vivo, male SD rats
# Settings: IV, 3 mg/kg
# Method: Experimental purpose: male SD rats aged 7-9 weeks were selected as test animals, and the drug concentrations of the compounds in plasma at different time points after single intravenous injection (IV) and intragastric administration (PO) of the compounds were measured by an LC/MS/MS method, so that the pharmacokinetic behavior of the compounds disclosed herein in rats was studied, and the pharmacokinetic characteristic of the compounds was evaluated.
# Drug preparation: the compounds were all prepared into clear solution by taking 5% DMSO+10% solutol+85% water as vehicle, and were used for administration in IV and PO groups. The dose of each compound administered was: IV, 3 mg/kg; PO, 10 mg/kg.
Apparent clearance Cl [mL/min/kg],Apparent volume of distribution Vd [L/kg],Area under the curve AUC0-last [µM·h],Half-life T1/2 [min],SMILES
44.0,1.4,2.748,30,C[C@@H]1COC[C@@H]2c3cc(F)cnc3O[C@@H](C)CNC(=O)c3cnn4ccc(nc34)N12 [WX008]
19.0,1.3,6.19,54,O=C1NC2(CC2)COc2ncc(F)cc2[C@H]2CCOCCN2c2ccn3ncc1c3n2 [WX009A]

# Same assay, conditions: PO, 10 mg/kg
Area under the curve AUC0-last [µM·h],Bioavailability F % [%],Time to peak Tmax [min],SMILES
2.282,25,30,C[C@@H]1COC[C@@H]2c3cc(F)cnc3O[C@@H](C)CNC(=O)c3cnn4ccc(nc34)N12 [WX008]
9.696,49,78,O=C1NC2(CC2)COc2ncc(F)cc2[C@H]2CCOCCN2c2ccn3ncc1c3n2 [WX009A]

# Same assay, conditions: PO, 10 mg/kg, read-out: Peak concentration Cmax
row,Cmax [nM],SMILES
1,1130,C[C@@H]1COC[C@@H]2c3cc(F)cnc3O[C@@H](C)CNC(=O)c3cnn4ccc(nc34)N12 [WX008]
2,2630,O=C1NC2(CC2)COc2ncc(F)cc2[C@H]2CCOCCN2c2ccn3ncc1c3n2 [WX009A]
